Legend:
[1] = tested on: Hela mutant cervix carcinoma cells; test: Cytotoxic activity with or without nucleoside transport inhibitor dipyridamole, MTT assay; type: cell-based; details: dipyridamole 10 μM
Experimental: Dipyridamole was used as an inhibitor of the equilibrative nucleoside transporters hENT1 and hENT2. The cells were seeded in 96-well plates with 5×10^3 cells per well, in RPMI 1640 medium with 2 mM glutamine and 10% FBS. The cells were pre-incubated for 24 hours. Dipyridamole (10 μM) was added to the cells 30 minutes prior to the addition of the test compounds. The test compounds were dissolved in DMSO and further diluted in medium just prior to use. 6 wells were used per test concentration. The cells were incubated with test compound for 72 hours. 20 μl of freshly prepared MTT solution was added to each well and incubated for 4 hours.

[2] = tested on: MT-3/ADR resistant breast carcinoma; test: Cytotoxicity, MTT assay, adriablastin resistant cell line MT-3/ADR; type: cell-based; details: concentration range tested up to 100 μM
Experimental: The cells were seeded in 96-well plates with 5×10^3 cells per well, in RPMI 1640 medium with 2 mM glutamine and 10% FBS. The cells were incubated for 24 hours. The test compounds were dissolved in DMSO and further diluted in medium just prior to use. 6 wells were used per test concentration. The cells were incubated with test compound for 24 hours. 20 μl of freshly prepared MTT solution was added to each well and incubated for 4 hours.

Nc1ncn([C@@H]2O[C@H](CO)[C@@H](O)[C@H]2O)c(=O)n1 [Aza-C, 5-azacytidine]
reduction of activity by addition of dipyridamole [1]: 3 fold | activity in the MT-3/ADR resistant cell line [2]: No activity was observed

Reference: patent US8399420B2, “Azacytidine analogues and uses thereof” (Mount Sanai School of Medicine, priority 2007, dated 2013)
